# Reference: patent publication US9663451B2, “Forms of co-crystals of agomelatine and p toluenesulphonic acid, a process for their preparation and pharmaceutical compositions containing them” (LES LABORATOIRES SERVIER, priority 2013, dated 2017)
# What was measured:
# [1] = Stability of samples in incubators, determined by HPLC; format: physicochemical; conditions: 30 days
# [2] = Solubility by HPLC (external standard method) compared with agomelatine of form II; format: physicochemical
# Protocol: By means of an external standard method, the compounds of Examples 1 and 2 are tested by HPLC and compared with agomelatine of form II. The results are presented in Table 4 in the form of % increase in solubility relative to the solubility of agomelatine of form II: […]
"Stability ([1]; 70° C., closed bottle)",Solubility (increase versus agomelatine form II) in 0.1N HCl [2],Solubility (increase versus agomelatine form II) in a buffer pH 6.8 [2],Solubility (increase versus agomelatine form II) in water [2],"Stability ([1]; 25° C., 60% RH, open bottle)","Stability ([1]; 40° C., 75% RH, open bottle)","Stability ([1]; 50° C., closed bottle)",Structure (SMILES)
Stable,+45%,+60%,+35%,–,–,–,"COc1ccc2cccc(CCNC(C)=O)c2c1.Cc1ccc(S(=O)(=O)O)cc1 [Compound of Example 2, Agomelatine/p-Toluenesulphonic Acid (1/1) Co-Crystal]"
Stable,+50%,+49%,+41%,Stable,Stable,Stable,"COc1ccc2cccc(CCNC(C)=O)c2c1.Cc1ccc(S(=O)(=O)O)cc1.O [Compound of Example 1, Agomelatine/p-Toluenesulphonic Acid (1/1) Monohydrate Co-Crystal]"
